In general, EC50 refers to the concentration giving half of the maximal effect.

The target of this assay is human APJ receptor (Homo sapiens (Human), UniProt P35414). Description: biochemical. The format is biochemical. As to conditions: read-out: Activity hAPJ SPA EC50 IP. Put shortly: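 Membranes from CHO cells stably expressing cloned human APJ were incubated with WGA SPA beads in 20 mM HEPES pH 7.5, 5 mM MgCl2, 0.1% BSA, 200 mM NaCl and 3 μM GDP. Reaction started with 0.2 nM [35S]GTPγS ± ligands, 90 min at RT. EC50 obtained by non-linear regression as mean of independent experiments.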
Sequence of human APJ receptor (P35414 whole entry): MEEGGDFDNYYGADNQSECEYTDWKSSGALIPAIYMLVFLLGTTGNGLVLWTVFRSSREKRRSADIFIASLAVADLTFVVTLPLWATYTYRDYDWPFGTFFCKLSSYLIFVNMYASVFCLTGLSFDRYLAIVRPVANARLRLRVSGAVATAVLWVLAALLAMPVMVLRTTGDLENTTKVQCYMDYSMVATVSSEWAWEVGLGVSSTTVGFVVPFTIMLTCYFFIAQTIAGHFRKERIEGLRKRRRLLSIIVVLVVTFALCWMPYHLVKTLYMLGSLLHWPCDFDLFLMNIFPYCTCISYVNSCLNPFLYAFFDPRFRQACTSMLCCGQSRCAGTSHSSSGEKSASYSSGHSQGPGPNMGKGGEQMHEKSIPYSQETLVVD

For `COc1ncnc(OC)c1-n1c(NS(=O)(=O)[C@@H](C)[C@H](C)c2ncc(C)cn2)nnc1-c1ccccn1` [Example 776.0, (2S,3R)-N-(4-(4,6-dimethoxy-5-pyrimidinyl)-5-(2-pyridinyl)-4H-1,2,4-triazol-3-yl)-3-(5-methyl-2-pyrimidinyl)-2-butanesulfonamide], the EC50 is 3.9 nM.

Regarding `COc1ncnc(OC)c1-n1c(NS(=O)(=O)[C@@H](C)[C@@H](OC(C)C)c2ncc(C)cn2)nnc1-c1ccccn1` [Example 777.0, (1S,2S)-N-(4-(4,6-dimethoxy-5-pyrimidinyl)-5-(2-pyridinyl)-4H-1,2,4-triazol-3-yl)-1-(1-methylethoxy)-1-(5-methyl-2-pyrimidinyl)-2-propanesulfonamide], the EC50 is 2.2 nM.

As to `COc1cccc(OC)c1-n1c(NS(=O)(=O)[C@@H](C)[C@@H](OC(C)C)c2ncc(C)cn2)nnc1-c1ccccn1` [Example 778.0, (1S,2S)-N-(4-(2,6-dimethoxyphenyl)-5-(2-pyridinyl)-4H-1,2,4-triazol-3-yl)-1-(1-methylethoxy)-1-(5-methyl-2-pyrimidinyl)-2-propanesulfonamide], the concentration giving a half-maximal response (EC50) was determined as 0.77 nM.

Turning to `COc1ncnc(OC)c1-n1c(NS(=O)(=O)[C@@H](C)[C@H](OC)c2cnc(C)cn2)nnc1-c1ccccn1` [Example 779.0, (1R,2S)-N-(4-(4,6-dimethoxy-5-pyrimidinyl)-5-(2-pyridinyl)-4H-1,2,4-triazol-3-yl)-1-methoxy-1-(5-methyl-2-pyrazinyl)-2-propanesulfonamide], the EC50 stood at 17 nM.

On to `COc1cccc(OC)c1-n1c(NS(=O)(=O)[C@@H](C)[C@H](OC)c2cnc(C)cn2)nnc1-c1ccccn1` [Example 780.0, (1R,2S)-N-(4-(2,6-dimethoxyphenyl)-5-(2-pyridinyl)-4H-1,2,4-triazol-3-yl)-1-methoxy-1-(5-methyl-2-pyrazinyl)-2-propanesulfonamide], for which the EC50 came to 8.8 nM.

Turning to `Cc1cnc([C@@H](C)[C@H](C)S(=O)(=O)Nc2nnc(-c3cccc(C)n3)n2-c2c(F)cccc2F)nc1` [Example 783.0, (2S,3R)-N-(4-(2,6-difluorophenyl)-5-(6-methyl-2-pyridinyl)-4H-1,2,4-triazol-3-yl)-3-(5-methyl-2-pyrimidinyl)-2-butanesulfonamide], the EC50 is 4.2 nM.

On to `COc1cccc(-c2nnc(NS(=O)(=O)[C@@H](C)[C@H](C)c3ncc(C)cn3)n2-c2c(F)cccc2F)n1` [Example 784.0, (2S,3R)-N-(4-(2,6-difluorophenyl)-5-(6-methoxy-2-pyridinyl)-4H-1,2,4-triazol-3-yl)-3-(5-methyl-2-pyrimidinyl)-2-butanesulfonamide], for which the concentration giving a half-maximal response (EC50) was found to be 0.4 nM.

On to `Cc1cnc([C@@H](C)[C@H](C)S(=O)(=O)Nc2nnc(-c3ccccn3)n2-c2c(F)cccc2F)nc1` [Example 785.0, (2S,3R)-N-(4-(2,6-difluorophenyl)-5-(2-pyridinyl)-4H-1,2,4-triazol-3-yl)-3-(5-methyl-2-pyrimidinyl)-2-butanesulfonamide], for which the EC50 was determined as 4.9 nM.

For `COc1cccc(-c2nnc(NS(=O)(=O)[C@@H](C)[C@H](C)c3ncc(Cl)cn3)n2-c2c(F)cccc2F)n1` [Example 786.0, (2S,3R)-3-(5-chloro-2-pyrimidinyl)-N-(4-(2,6-difluorophenyl)-5-(6-methoxy-2-pyridinyl)-4H-1,2,4-triazol-3-yl)-2-butanesulfonamide], the EC50 came to 0.16 nM.

As for `Cc1cccc(-c2nnc(NS(=O)(=O)[C@@H](C)[C@H](C)c3ncc(Cl)cn3)n2-c2c(F)cccc2F)n1` [Example 788.0, (2S,3R)-3-(5-chloro-2-pyrimidinyl)-N-(4-(2,6-difluorophenyl)-5-(6-methyl-2-pyridinyl)-4H-1,2,4-triazol-3-yl)-2-butanesulfonamide], the EC50 came out at 0.84 nM.

Regarding `COc1cccc(-c2nnc(NS(=O)(=O)[C@@H](C)[C@H](C)c3cnc(C)cn3)n2-c2c(F)cccc2F)n1` [Example 789.0, (2S,3R)-N-(4-(2,6-difluorophenyl)-5-(6-methoxy-2-pyridinyl)-4H-1,2,4-triazol-3-yl)-3-(5-methyl-2-pyrazinyl)-2-butanesulfonamide], the half-maximal effective concentration (EC50) amounted to 1.9 nM.

Regarding `Cc1cnc([C@@H](C)[C@H](C)S(=O)(=O)Nc2nnc(-c3cccc(C)n3)n2-c2c(F)cccc2F)cn1` [Example 790.0, (2S,3R)-N-(4-(2,6-difluorophenyl)-5-(6-methyl-2-pyridinyl)-4H-1,2,4-triazol-3-yl)-3-(5-methyl-2-pyrazinyl)-2-butanesulfonamide], the concentration for a half-maximal effect (EC50) worked out at 20 nM.

As for `CNc1cccc(-c2nnc(NS(=O)(=O)[C@@H](C)[C@H](C)c3ncc(C)cn3)n2-c2c(F)cccc2F)n1` [Example 791.0, (2S,3R)-N-(4-(2,6-difluorophenyl)-5-(6-(methylamino)-2-pyridinyl)-4H-1,2,4-triazol-3-yl)-3-(5-methyl-2-pyrimidinyl)-2-butanesulfonamide], the EC50 came out at 0.63 nM.

For the compound `COc1cccc(-c2nnc(NS(=O)(=O)[C@H](C)[C@@H](OC)c3ncc(C)cn3)n2-c2c(F)cccc2F)n1` [Example 792.0, (1S,2R)-N-(4-(2,6-difluorophenyl)-5-(6-methoxy-2-pyridinyl)-4H-1,2,4-triazol-3-yl)-1-methoxy-1-(5-methyl-2-pyrimidinyl)-2-propanesulfonamide], the concentration giving a half-maximal response (EC50) was 51 nM.

With `Cc1cnc([C@@H](C)[C@H](C)S(=O)(=O)Nc2nnc(-c3cccnc3)n2-c2c(F)cccc2F)nc1` [Example 793.0, (2S,3R)-N-(4-(2,6-difluorophenyl)-5-(3-pyridinyl)-4H-1,2,4-triazol-3-yl)-3-(5-methyl-2-pyrimidinyl)-2-butanesulfonamide], the EC50 was determined as 15 nM.

On to `COc1cnc([C@@H](C)[C@H](C)S(=O)(=O)Nc2nnc(-c3cncc(C)c3)n2-c2c(F)cccc2F)cn1` [Example 794.0, (2S,3R)-N-(4-(2,6-difluorophenyl)-5-(5-methyl-3-pyridinyl)-4H-1,2,4-triazol-3-yl)-3-(5-methoxy-2-pyrazinyl)-2-butanesulfonamide], for which the half-maximal effective concentration (EC50) was found to be 6.6 nM.

In the case of `Cc1cncc(-c2nnc(NS(=O)(=O)[C@@H](C)[C@H](C)c3cnc(C)cn3)n2-c2c(F)cccc2F)c1` [Example 795.0, (2S,3R)-N-(4-(2,6-difluorophenyl)-5-(5-methyl-3-pyridinyl)-4H-1,2,4-triazol-3-yl)-3-(5-methyl-2-pyrazinyl)-2-butanesulfonamide], the concentration giving a half-maximal response (EC50) came to 30 nM.

`Cc1cncc(-c2nnc(NS(=O)(=O)[C@@H](C)[C@H](C)c3ncc(Cl)cn3)n2-c2c(F)cccc2F)c1` [Example 796.0, (2S,3R)-3-(5-chloro-2-pyrimidinyl)-N-(4-(2,6-difluorophenyl)-5-(5-methyl-3-pyridinyl)-4H-1,2,4-triazol-3-yl)-2-butanesulfonamide]: the concentration for a half-maximal effect (EC50) was 1.1 nM.

Take `COc1ncnc(OC)c1-n1c(NS(=O)(=O)[C@@H](C)[C@H](C)c2cnc(C)cn2)nnc1-c1cccnc1` [Example 806.0, (2S,3R)-N-(4-(4,6-dimethoxy-5-pyrimidinyl)-5-(3-pyridinyl)-4H-1,2,4-triazol-3-yl)-3-(5-methyl-2-pyrazinyl)-2-butanesulfonamide]: the concentration for a half-maximal effect (EC50) was found to be 19 nM.

As for `C[C@H](c1ccc(Cl)cn1)[C@H](C)S(=O)(=O)Nc1nnc(-c2cccnc2)n1-c1c(O)nc[nH]c1=O` [Example 810.0, (2S,3R)-3-(5-chloro-2-pyridinyl)-N-(4-(4-hydroxy-6-oxo-1,6-dihydro-5-pyrimidinyl)-5-(3-pyridinyl)-4H-1,2,4-triazol-3-yl)-2-butanesulfonamide], the EC50 was 770 nM.

Take `COc1ncnc(OC)c1-n1c(NS(=O)(=O)[C@@H](C)[C@@H](OC(C)C)c2ncc(C)cn2)nnc1-c1cncc(C)c1` [Example 829.0, (1S,2S)-N-(4-(4,6-dimethoxy-5-pyrimidinyl)-5-(5-methyl-3-pyridinyl)-4H-1,2,4-triazol-3-yl)-1-(1-methylethoxy)-1-(5-methyl-2-pyrimidinyl)-2-propanesulfonamide]: the EC50 was 9.5 nM.

Take `COc1cccc(-c2nnc(NS(=O)(=O)[C@@H]3CCCN(c4ncc(Cl)cn4)C3)n2-c2c(OC)ncnc2OC)n1` [Example 831.0, (3R)-1-(5-chloro-2-pyrimidinyl)-N-(4-(4,6-dimethoxy-5-pyrimidinyl)-5-(6-methoxy-2-pyridinyl)-4H-1,2,4-triazol-3-yl)-3-piperidinesulfonamide, (3S)-1-(5-chloro-2-pyrimidinyl)-N-(4-(4,6-dimethoxy-5-pyrimidinyl)-5-(6-methoxy-2-pyridinyl)-4H-1,2,4-triazol-3-yl)-3-piperidinesulfonamide]: the concentration for a half-maximal effect (EC50) came out at 0.89 nM.

As to `COc1cccc(-c2nnc(NS(=O)(=O)CC3CC3)n2-c2c(OC)cccc2OC)n1` [Example 832.0, 1-cyclopropyl-N-(4-(2,6-dimethoxyphenyl)-5-(6-methoxy-2-pyridinyl)-4H-1,2,4-triazol-3-yl)methanesulfonamide], the concentration giving a half-maximal response (EC50) came to 110 nM.

Consider `COc1cccc(-c2nnc(NS(=O)(=O)[C@@H](C)[C@H](C)c3ncc(Cl)cn3)n2C2CCOCC2)n1` [Example 835.0, (2S,3R)-3-(5-chloro-2-pyrimidinyl)-N-(5-(6-methoxy-2-pyridinyl)-4-(tetrahydro-2H-pyran-4-yl)-4H-1,2,4-triazol-3-yl)-2-butanesulfonamide], for which the concentration giving a half-maximal response (EC50) was found to be 13 nM.

Turning to `COc1cccc(-c2nnc(NS(=O)(=O)[C@@H](C)[C@H](OC)c3ncc(Cl)cn3)n2C2CCOCC2)n1` [Example 836.0, (1R,2S)-1-(5-chloro-2-pyrimidinyl)-1-methoxy-N-(5-(6-methoxy-2-pyridinyl)-4-(tetrahydro-2H-pyran-4-yl)-4H-1,2,4-triazol-3-yl)-2-propanesulfonamide], the EC50 amounted to 2.9 nM.

With `COc1cccc(-c2nnc(NS(=O)(=O)[C@@H](C)[C@@H](OC(C)C)c3ncc(C)cn3)n2C2CCOCC2)n1` [Example 837.0, (1S,2S)-N-(5-(6-methoxy-2-pyridinyl)-4-(tetrahydro-2H-pyran-4-yl)-4H-1,2,4-triazol-3-yl)-1-(1-methylethoxy)-1-(5-methyl-2-pyrimidinyl)-2-propanesulfonamide], the EC50 was 5.1 nM.

The values are drawn from patent publication US10058550B2, “Methods of treating heart failure” (priority 2015, dated 2018).
